Experiments:
[1] = tested on: urethra internal pressure of a rat; assay: Measurement of Urethra Internal Pressure in Rat Under Anesthesia; assay type: in vivo; conditions: SD male rat under urethane anesthesia, intravenous
Text: A SD male rat (Crl: CD(SD), Charles River Laboratories Japan, Inc., 7-10 weeks old) was anesthetized by subcutaneous administration of 1.5 g/kg urethane at a back of a neck. After neck median incision, a jugular vein catheter for intravenous administration was inserted. A lower abdominal part was median incised, and a urethra was ligated at around pubis. A urethral catheter for measuring a urethra internal pressure, equipped with a collar at a tip and filled with a physiological saline was inserted into a urethra through an incised bladder top, and ligation-fixed at a bladder neck part. The urethral catheter was connected to a pressure transducer (manufactured by Nihon Kohden Corporation), and a urethra internal pressure was measured. […] A urethra internal pressure reduction rate (%) was calculated based on a urethra internal pressure after compound administration, wherein a value obtained by subtracting a postmortem baseline value (minimum value of urethra internal pressure for 10 minutes after administration of somnopentyl) from a urethra internal pressure value before compound administration (0 minute) was 100%.

[2] = biological target: human ENPP2 (Homo sapiens (Human), UniProt Q13822); assay: Measurement of Human ENPP2 Inhibitory Activity; assay type: biochemical; conditions: 1 μM test compound; 16:0-LPC substrate, choline production; read-out: ENPP2 inhibition rate(%) (1 μM)
Method: 10 μL of a test compound solution (10% dimethyl sulfoxide) at each concentration and 40 μL of a 5 μg/mL human ENPP2 solution (buffer A: 100 mmol/L Tris-HCl (pH 9.0), 500 mmol/L NaCl, 5 mmol/L MgCl2, 0.05% Triton X-100) were mixed, 50 μL of a 2 mmol/L 16:0-lysophosphatidylcholine (LPC) solution (buffer A) was further added to react at 37° C. for 24 hours. Subsequently, to 10 μL of the reaction solution was added 90 μL of a measurement buffer (0.5 mmol/L aminoantipyrine, 0.3 mmol/L N-ethyl-N-(2-hydroxy-3-sulfopropyl)-3-methylaniline, 1 U/mL peroxidase, 3 U/mL choline oxidase, 100 mmol/L Tris-HCl (pH 8.5), 5 mmol/L CaCl2) to react at 37° C. for 20 minutes, and spectrophotometric determination was performed at 555 nm.
Using a standard curve, a choline production amount (enzyme activity) in each test compound was calculated, and the inhibitory activity rate of each test compound was calculated, wherein the enzyme activity in a positive control to which a test compound is not added, was a 0% inhibition rate, and the enzyme activity in a negative control to which a test compound and human ENPP2 are not added, were 100% inhibition. Further, concerning the present compounds shown in Table 3, an IC50 value was calculated from inhibitory activity rate at each concentration.

## O=C(O)CCCCC(=O)N1CCc2c(n(CCCc3ccccc3)c3ccccc23)C1 [Example 3, 6-oxo-6-[9-(3-phenylpropyl)-1,3,4,9-tetrahydro-2H-beta-carbolin-2-yl]hexanoic acid]
[1]; dose 0.1, 0.3, 1.0 mg/kg, FIG. 1
  urethra internal pressure: significantly reduced a urethra internal pressure

## O=C(C[C@H]1CC[C@H](C(=O)O)CC1)N1CCc2c(n(Cc3ccc(Cl)cc3F)c3ncccc23)C1 [Example 31(24), trans-4-{2-[9-(4-chloro-2-fluorobenzyl)-5,6,8,9-tetrahydro-7H-pyrido[4′,3′:4,5]pyrrolo[2,3-b]pyridin-7-yl]-2-oxoethyl}cyclohexanecarboxylic acid]
[1]; dose 0.03, 0.1, 0.3 mg/kg, FIG. 2
  urethra internal pressure: significantly reduced a urethra internal pressure

## O=C(CC12CCC(C(=O)O)(CC1)CC2)N1CCc2c(n(Cc3ccc(Cl)cc3F)c3ncccc23)C1 [Example 31(142), 4-{2-[9-(4-chloro-2-fluorobenzyl)-5,6,8,9-tetrahydro-7H-pyrido[4′,3′:4,5]pyrrolo[2,3-b]pyridin-7-yl]-2-oxoethyl}bicyclo[2.2.2]octane-1-carboxylic acid]
[2]
  inhibition at 1 µM: 98.6%

Reference: US9636330B2, “Tetrahydrocarboline derivative” (ONO PHARMACEUTICAL CO., LTD., priority 2010, dated 2017)
